Read-outs that look alike come from different tables or passages of the source.
Experiments:
[1] = tested on: NQO1 specific enzyme activity in BEAS-2B cells (marker for NRF2 activation); assay: BEAS-2B NQO1 MTT Assay; assay type: cell-based; conditions: compound incubated 48 hours, read-out: EC50 (NQO1 specific enzyme activity induction)
Source text: BEAS-2B NQO1 MTT Assay NAD(P)H:quinone oxidoreductase 1 (NQO1), also called DT diaphorase, is a homodimeric FAD-containing enzyme that catalyzes obligatory NAD(P)H-dependent two-electron reductions of quinones and protects cells against the toxic and neoplastic effects of free radicals and reactive oxygen species arising from one-electron reductions. The transcription of NQO1 is finely regulated by NRF2, and thus NQO1 activity is a good marker for NRF2 activation. On day one, frozen BEAS-2B cells (ATCC) are thawed in a water bath, counted, and re-suspended at a concentration of 250,000 cells/mL. Fifty microliters of cells are plated in 384 well black clear-bottomed plates. Plates are incubated at 37° C., 5% CO2 overnight. On day two, plates are centrifuged and 50 nL of compound or controls are added to the cells. Plates are then incubated at 37° C., 5% CO2 for 48 hours. On day four, medium is aspirated from the plate and crude cell lysates are made by adding 13 uL of 1× Cell Signaling Technologies lysis buffer with 1 Complete, Mini, EDTA-free Protease Inhibitor Tablet (Roche) for each 10 mL of lysis buffer. After lysis plates are incubated for 20 minutes at room temperature. Two microliters of lysate are removed for use in Cell Titer Glo assay (Promega) and MTT cocktail is prepared (Prochaska et. al. 1998) for measurement of NQO1 activity. Fifty microliters of MTT cocktail is added to each well, plate is centrifuged, and analyzed on an Envision plate reader (Perkin Elmer) using Absorbance 570 nm label for 30 minutes. Product formation is measured kinetically and the pEC50 of NQO1 specific activity induction is calculated by plotting the change in absorbance (Delta OD/min) versus the log of compound concentration followed by 3-parameter fitting. pEC50 is the negative log of the EC50.

[2] = target: T1, full length Keap1 protein / full length NRF2 protein (Homo sapiens, UniProt Q14145); assay: NRF2-Keap1 TR-FRET Low Protein Assay; assay type: binding; conditions: 1.25 nM Keap1 FlagHis and 2.5 nM biotin-NRF2 added
T1 construct: full length NRF2 protein and full length Keap1 protein (Keap1 exists a dimer) are used; His
T1 sequence (Q14145 whole entry): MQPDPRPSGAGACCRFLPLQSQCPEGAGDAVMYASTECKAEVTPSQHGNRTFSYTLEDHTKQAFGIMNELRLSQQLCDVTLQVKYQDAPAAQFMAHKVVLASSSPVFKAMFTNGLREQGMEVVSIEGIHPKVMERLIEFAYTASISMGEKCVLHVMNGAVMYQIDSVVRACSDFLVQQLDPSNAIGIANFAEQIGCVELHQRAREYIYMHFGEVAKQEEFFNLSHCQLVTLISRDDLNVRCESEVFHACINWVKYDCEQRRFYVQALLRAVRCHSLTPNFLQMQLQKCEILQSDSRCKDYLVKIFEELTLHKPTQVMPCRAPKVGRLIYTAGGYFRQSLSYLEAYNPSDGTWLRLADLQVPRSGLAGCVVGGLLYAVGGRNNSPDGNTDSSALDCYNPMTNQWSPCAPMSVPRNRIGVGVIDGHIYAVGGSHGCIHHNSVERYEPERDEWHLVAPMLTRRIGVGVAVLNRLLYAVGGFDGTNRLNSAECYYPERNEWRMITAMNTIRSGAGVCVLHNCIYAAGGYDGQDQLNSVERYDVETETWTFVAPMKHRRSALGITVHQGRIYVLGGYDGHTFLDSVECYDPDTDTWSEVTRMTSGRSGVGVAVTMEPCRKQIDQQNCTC
Source text: NRF2-Keap1 TR-FRET Low Protein Assay In the NRF2-Keap1 TR-FRET (time-resolved fluorescence resonance energy transfer) low protein assay, full length NRF2 protein and full length Keap1 protein (Keap1 exists a dimer) are used. The assay detects a compound's ability to displace the binding of Keap1 […] with biotinylated Avi-NRF2 protein. Biotin-NRF2 binds to streptavidin-europium (a component of the detection mix) and Keap1 […] is recognized by anti-Flag APC (allophycocyanin) antibody (also a component of the detection mix). If binding occurs between the two proteins, there will be an energy transfer from the Eu+3 (donor) at 615 nm to the APC (acceptor) at 665 nm. A potential NRF2 inhibitor will cause a reduction in the TR-FRET signal by interfering with the binding of Keap1 to NRF2. Ten nanoliters of 100× compound dose response curves (serial 3-fold dilutions) in DMSO are stamped using an Echo liquid handling system (Labcyte) into 384-well, low volume, black assay plates (Greiner, #784076), with DMSO in columns 6 and 18. An additional 90 nl DMSO is added to each well, to bring the total volume to 100 nl per well. The top concentration of compound is located in columns 1 and 13, with the serial dilutions going across the row. All reagents are diluted in assay buffer (50 mM Tris, pH 8.0, 5 mM MgCl2, 100 mM NaCl, 0.005% BSA, 1 mM DTT, and 2 mM CHAPS. The BSA, DTT, and CHAPS are added to the assay buffer on the day of assay. […] Wells in column 18 receive 5 ul of assay buffer instead. Plates are centrifuged at 500 rpm for 1 minute, covered with a plate lid, and incubated at 37° C. for 2.25 hours. Plates are then removed from the incubator and allowed to cool to RT for 15 minutes. Five microliters of 2.5 nM biotin-NRF2 protein is then added to all wells of the plates and the plates are spun at 500 rpm for 1 minute, followed by incubating at 4° C. for 1.25 hours. The plates are then allowed to warm to RT for 15 minutes, followed by the addition of 10 ul of detection mix (1 nM Streptavidin Eu+W1024 and 5 ug/ml mouse anti-DYKDDDDK IgG conjugated to SureLight APC antibody; both from Columbia Biosciences) to all wells. Plates are spun at 500 rpm for 1 minute, incubated for 1 hour at RT, and read on an Envision plate reader using a 320 nm excitation filter and 615 nm and 665 nm emission filters. […] Data analysis is handled using the software package Abase XE (Surrey, United Kingdom). […] For calculation of pIC50s, Abase XE uses a four parameter equation. pIC50 is the negative log of the IC50.

[3] = target: T2, Keap1 Kelch domain (321-609) / TAMRA-labeled 16mer NRF2 peptide (ETGE motif) (Homo sapiens, UniProt Q14145); assay: NRF2-Keap1 FP Assay (Keap1 Kelch fluorescence polarization); assay type: binding; conditions: 20 nM Keap1 (321-609), 8 nM Tamra labeled peptide
T2 construct: the Kelch domain (321-609) of Keap1 is used
T2 sequence (Q14145 321-609): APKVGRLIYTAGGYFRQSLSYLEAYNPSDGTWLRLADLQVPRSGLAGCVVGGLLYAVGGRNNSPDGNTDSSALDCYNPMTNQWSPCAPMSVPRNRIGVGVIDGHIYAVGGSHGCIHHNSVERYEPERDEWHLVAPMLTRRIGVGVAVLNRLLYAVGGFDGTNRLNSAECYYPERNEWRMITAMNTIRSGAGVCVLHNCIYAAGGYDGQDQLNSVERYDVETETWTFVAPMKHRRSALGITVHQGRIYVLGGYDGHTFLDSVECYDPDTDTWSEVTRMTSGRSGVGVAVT
Source text: One model for the NRF2-Keap1 interaction is through two binding sites in the Neh2 domain on NRF2. The two sites are referred to as the DLG binding motif (latch domain, uM affinity) and the ETGE binding motif (hinge domain, nM affinity). The Keap1 protein consists of an N-terminal region (NTR), a broad complex, tramtrack, and brick a′ brac domain (BTB), an intervening region (IVR), a double glycine repeat domain (DGR or Kelch), and a C-terminal region. The DLG and ETGE motifs of NRF2's Neh2 domain bind to the Kelch domain of Keap1 at different affinities. In the Keap1 Kelch fluorescence polarization (FP) assay, a TAMRA-labeled 16mer peptide (AFFAQLQLDEETGEFL) containing the ETGE motif of NRF2 and the Kelch domain (321-609) of Keap1 is used. The assay determines if a compound interferes with the binding between Keap1 […] and the TAMRA-labeled peptide. Binding of TAMRA-labeled NRF2 peptide to Keap1 (321-609) results in a high FP signal. If a compound interferes with the binding between the peptide and the protein, it will cause the assay signal to decrease. Thus, assay signal is inversely proportional to binding inhibition.
100 nl of 100× compound dose response curves (serial 3-fold dilutions) in DMSO are stamped using an Echo liquid handling system (Labcyte) into 384-well low volume black assay plates (Greiner, #784076), with DMSO in columns 6 and 18. The top concentration of compound is located in columns 1 and 13. Keap1 (321-609) is diluted to 40 nM (2×) in 1× assay buffer (50 mM Tris, pH 8.0, 100 mM NaCl, 5 mM MgCl2, 1 mM DTT, 2 mM CHAPS, and 0.005% BSA) and 5 ul is added using a Multidrop Combi (Thermo Electron Corporation) equipped with a metal tip dispenser to all wells of the compound plate, except column 18. Column 18 receives only 5 ul of assay buffer. Immediately, 5 uL of 16 nM (2×) of Tamra labeled peptide (AFFAQLQLDEETGEFL, 21st Century Biochemicals) is added to all wells of the plate. The plates are spun at 500 rpm for 1 min, incubated for 1 hr at room temperature, and read on an Analyst GT (Molecular Devices) equipped with excitation (530/25 nm) and emission (580/10 nm) filters designed for Tamra probes. A 561 nm dichroic mirror is also used in the Analyst. The final assay concentrations of Keap1 (321-609) and Tamra labeled peptide are 20 nM and 8 nM, respectively. Fluorescence measurements, represented as mP, are used in the transformation of the data. Compound activity is calculated based on percent inhibition, normalized against controls in the assay (Control 1 contains the Tamra peptide and Keap1 (321-609) together (0% response) and control 2 contains the Tamra peptide alone (100% response)). Data analysis is handled using the software package Abase XE (Surrey, United Kingdom. The % inhibition values are calculated by the equation: 100−(100*((compound response−average control 2)/(average control 1−average control2))). For calculation of pIC50s, Abase XE uses a four parameter equation. pIC50 is the negative log of the IC50.

| Compound | EC50 ([1]; Homo sapiens) | further results |
| --- | --- | --- |
| CC(Oc1ccc(-c2cccc(-n3ncc(C(=O)O)c3[C@H]3C[C@@H]3c3cn(C)nn3)c2)cc1)C1CCCCC1 (mixture of isomers) [Example 241, 1-(4′-(1-Cyclohexylethoxy)-[1,1′-biphenyl]-3-yl)-5-((1,2-trans)-2-(1-methyl-1H-1,2,3-triazol-4-yl)cyclopropyl)-1H-pyrazole-4-carboxylic Acid] | 1000 to 10000 nM | IC50 [2]: > 100000 nM; IC50 [3]: > 10000 nM |
| C[C@H](Oc1cccc(-c2cccc(-n3ncc(C(=O)O)c3[C@@H]3C[C@H]3c3cn(C4CC4)nn3)c2)c1)C1CCCCC1 (racemic) [Example 79, 1-(3′-((S)-1-Cyclohexylethoxy)-[1,1′-biphenyl]-3-yl)-5-(trans-2-(1-cyclopropyl-1H-1,2,3-triazol-4-yl)cyclopropyl)-1H-pyrazole-4-carboxylic acid] | 1 to 10 nM |  |
| C[C@H](Oc1cccc(-c2cccc(-n3ncc(C(=O)O)c3[C@@H]3C[C@H]3c3cn(C4CCOCC4)nn3)c2)c1)C1CCCCC1 (racemic) [Example 83, 1-(3′-((S)-1-Cyclohexylethoxy)-[1,1′-biphenyl]-3-yl)-5-(trans-2-(1-(tetrahydro-2H-pyran-4-yl)-1H-1,2,3-triazol-4-yl)cyclopropyl)-1H-pyrazole-4-carboxylic acid] | 1 to 10 nM |  |
| C[C@H](Oc1cccc(-c2cccc(-n3ncc(C(=O)O)c3[C@@H]3C[C@H]3c3cn(CC(F)(F)F)nn3)c2)c1)C1CCCCC1 (racemic) [Example 89, 1-(3′-((S)-1-Cyclohexylethoxy)-[1,1′-biphenyl]-3-yl)-5-(trans-2-(1-(2,2,2-trifluoroethyl)-1H-1,2,3-triazol-4-yl)cyclopropyl)-1H-pyrazole-4-carboxylic acid] | 1 to 10 nM |  |
| CCC[C@@H]1CCCCN1C(=O)c1cccc(-c2cccc(-n3ncc(C(=O)O)c3[C@@H]3C[C@H]3c3cn(C)nn3)c2)c1 (racemic) [Example 199, 5-((1,2-trans)-2-(1-methyl-1H-1,2,3-triazol-4-yl)cyclopropyl)-1-(3′-((R)-2-propylpiperidine-1-carbonyl)-[1,1′-biphenyl]-3-yl)-1H-pyrazole-4-carboxylic acid] |  | EC50 ([1]; Homo sapiens, BEAS-2B, 48 h): 10 to 100 nM |
| C[C@H](Oc1cccc(-c2cccc(-n3ncc(C(=O)O)c3[C@@H]3C[C@H]3c3cn(C)nn3)c2)c1)C1CCCCC1 (racemic) [Example 75, 1-(3′-((S)-1-Cyclohexylethoxy)-[1,1′-biphenyl]-3-yl)-5-(trans-2-(1-methyl-1H-1,2,3-triazol-4-yl)cyclopropyl)-1H-pyrazole-4-carboxylic Acid] |  | EC50 ([1]; Homo sapiens, BEAS-2B, 48 h): 1 to 10 nM |
| C[C@@H]1Cc2ccccc2S(=O)(=O)N(Cc2cccc(-c3cccc(-n4ncc(C(=O)O)c4[C@@H]4C[C@H]4c4cn(C)nn4)c3)c2)C1 (racemic) [Example 137, 1-(3′-(((R)-4-methyl-1,1-dioxido-4,5-dihydrobenzo[f][1,2]thiazepin-2(3H)-yl)methyl)-[1,1′-biphenyl]-3-yl)-5-((1,2-trans)-2-(1-methyl-1H-1,2,3-triazol-4-yl)cyclopropyl)-1H-pyrazole-4-carboxylic acid] | 10 to 100 nM |  |
| CC(Cc1cccc(-c2cccc(-n3ncc(C(=O)O)c3[C@@H]3C[C@H]3c3cn(C)nn3)c2)c1)C1CCCCC1 (single isomer, unassigned) [Example 116f, 1-(3′-((R) or (S)-2-Cyclohexylpropyl)-[1,1′-biphenyl]-3-yl)-5-((1R,2R)-2-(1-methyl-1H-1,2,3-triazol-4-yl)cyclopropyl)-1H-pyrazole-4-carboxylic Acid] |  | EC50 [1]: 1 to 10 nM; IC50 [3]: 10 to 100 nM |
| C[C@H](Oc1cccc(-c2cccc(-n3ncc(C(=O)O)c3[C@@H]3C[C@H]3c3c[nH]nn3)c2)c1)C1CCCCC1 (racemic) [Example 93, 5-(trans-2-(1H-1,2,3-Triazol-4-yl)cyclopropyl)-1-(3′-((S)-1-cyclohexylethoxy)-[1,1′-biphenyl]-3-yl)-1H-pyrazole-4-carboxylic Acid] | 1 to 10 nM |  |
| C[C@H]1Cc2ccccc2S(=O)(=O)N(Cc2cccc(-c3cccc(-n4ncc(C(=O)O)c4[C@@H]4C[C@H]4c4cn(C)nn4)c3)c2)C1 (racemic) [Example 136, 1-(3′-(((S)-4-methyl-1,1-dioxido-4,5-dihydrobenzo[f][1,2]thiazepin-2(3H)-yl)methyl)-[1,1′-biphenyl]-3-yl)-5-((1,2-trans)-2-(1-methyl-1H-1,2,3-triazol-4-yl)cyclopropyl)-1H-pyrazole-4-carboxylic acid] | 100 to 1000 nM |  |

— patent US10364256B2 (GlaxoSmithKline Intellectual Property Development Limited, priority 2015, dated 2019)
